Key:
HeLa cells = assay: HeLa cell viability assay; type: cell-based; conditions: up to 50 μm, 24 h treatment
Description: A thorough evaluation of toxicity is critical for advancing TR001 to in vivo studies. […] To more thoroughly examine mitochondrial toxicity, we analyzed oxygen consumption rates (OCRs) using the Seahorse XF24 extracellular flux analyzer. This allowed us to assess the effects of TR001 on mitochondrial respiration and ATP synthesis. […] Consequently respiratory control ratios (i.e., the ratios between ADP-stimulated and basal respiration) were not affected across the concentrations tested (FIG. 5B). Complex III inhibitor antimycin A shuts down the electron transport chain at the bc1 complex and was used to account for oxygen leak.
Cell viability assay. HeLa cells were seeded at a density of 10^4 per well in 96-well plates and let to adhere for 6 h before treatment with varying concentrations of TR001 or vehicle (1% DMSO. After treatment for 24 h the relative viable cell number was determined with a CellTiter 96 Aqueous One Solution Cell Proliferation Assay Kit (Promega).

[1] = test system: col6a1 zebrafish morphants; assay: Survival of col6a1 zebrafish morphants; type: in vivo
Description: In FIG. 6D, the left panel represents data from embryos injected with a scrambled morpholino (scrd_MO, open squares), Exon 9 col6a1 morpholino (col6a1_MO, closed squares) and col6a1_MO embryos treated with TR001 at 0.1 μm (open circles), 1.0 μm (open triangles), 10 μm (open diamonds). Right panel represents data from embryos injected with a scrambled morpholino (scrd_MO, open squares), Exon 9 col6a1 morpholino (col6a1_MO, closed squares) and col6a1_MO embryos treated with 63 at […] (closed circles), 1.0 μm (closed triangles), 10 μm (closed diamonds). Embryos were treated with oligomycin, FCCP, rotenone (R) and antimycin A (A) as indicated. Results are presented as mean±SEM. Both graphs report data from 5 independent experiments with n=20 for each treatment. Error bars are reported as SEM. FIG. 6E, Survival of DMSO-treated zebrafish injected with the scrambled morpholino (open squares), DMSO-treated col6a1 morphants (closed squares) and col6a1 morphants treated with TR001 (0.1 μm, open triangles; 1.0 μm, open circles; 10 μm, open diamonds) or 63 (0.1 μm, closed triangles; 1.0 μm, closed circles; 10 μm, closed diamonds) were recorded for 30 days. Treatment started at 21 hpf and repeated at 4 dpf (arrows). Data report the percentage of surviving fish and are mean±SEM from 3 independent experiments (n=15 for each condition in each set).
Finally, fish survival was also assessed. Fifty percent of col6a1 morphant embryos treated with 0.1 μm of TR001 survived 7 days longer than col6a1 morphants treated with DMSO (p<0.0001 from 3 to 12 dpf), and 20% were still alive at 30 dpf (i.e., after 29 days of treatment) (FIG. 6E).
(§1) Morpholino antisense injection and treatment. Knock-down of col6a1 gene expression was obtained with a previously published morpholino ^[25] with sequence GAGAGCGGAAGACGAACCTTCATTC (SEQ ID NO: 2; GeneTools, Inc.). A control morpholino with no sequence homology in the zebrafish genome was used in parallel (CCTCTTACCTCAGTTACAATTTATA; SEQ ID NO: 3). Zebrafish eggs from wild-type matings were injected at the 1-2 cell stage with approximately 10 nL of 0.1 mm morpholino solution (corresponding to 4 ng of morpholino) using a WPI pneumatic PicoPump PV820 injector (World Precision Instruments, Inc.). Zebrafish embryos were dechorionated at 20 hours post fertilization (hpf) and treated at 21 hpf with increasing doses (0.1, 1 and 10 μm) of both TR001 and 63 compounds dissolved in fish water with 1% DMSO (vehicle).
Survival. Zebrafish survival was monitored every 3 days for 30 days. Drug treatment with both TR001 and 63 dissolved in fish water with 1% DMSO started at 21 hpf. After 3 days of treatment (4 days post fertilization, dpf), zebrafish were moved to a bigger tank (50 mL) with fresh compounds dissolved in 1% DMSO. As a control vehicle, fish water with 1% DMSO was used.

[2] = test system: col6a1 zebrafish morphants; assay: Touch-evoked escape response in col6a1 zebrafish morphants; type: in vivo; conditions: 48 hpf, 27 hours of treatment, 0.1, 1 and 10 μm
Protocol: Zebrafish embryos were injected with col6a1 morpholino at the 1-cell stage, dechorionated at 20 hpf and treated at 21 hpf with 0.1, 1 or 10 μm of either TR001 or 63. DMSO-treated embryos injected with a scrambled morpholino were used as a control. […] It should be noted that in these protocols, embryos were exposed to drugs for a longer period of time than in the spontaneous coiling experiments. This difference may help to explain why TR001 was as effective at 0.1 μm as it was at 1 and 10 μm.
as §1
Motor activity. The number of spontaneous coiling events performed in 15 seconds by single zebrafish embryos was recorded at 24 hpf by light microscopy. Touch-evoked escape responses were recorded at 48 hpf by observing the ability of zebrafish embryos to escape after a tail-touch with a little tip. Embryos were subdivided in 4 groups according to the observed phenotype: paralyzed embryos, score 0; underdeveloped embryos showing only coiling events, score 1; embryos showing lower motility, score 2; normal embryos, score 3.

mtPTP = assay: Chemical activator (PhAsO, Diamide, Cu(OP)2, NEM) induced mitochondrial swelling; type: biochemical, mouse; conditions: 1.5 μm compound, 10 μm Ca2+ plus PhAsO, Cu(OP)2 or NEM
Protocol: […] graphs compound TR001 prevention of chemical activation induced mitochondrial swelling. FIG. 3A-3D) mouse liver mitochondria (0.25 mg/mL) were treated with 10 μM Ca^2+ only (traces a); 10 μm Ca^2+ and after 2 min of incubation with: FIG. 3A) 7 μm PhAsO, FIG. 3B) 2 mm Diamide, FIG. 3C), 7 μm Cu(OP)2, FIG. 3D), 2 mm NEM (traces b-d). In traces c and d additions were as in traces b except that mitochondria were also treated with 1.5 μmCsA (traces c) or TR001 (traces d). Traces are representative of n=4 independent preparations.
Based on the SAR studies and mouse plasma stability data, we decided to move forward with TR001 for more extensive biological characterization. As noted above, mtPTP is triggered by elevated levels of matrix Ca^2+ and potentiated by oxidative stress, leading to mitochondrial swelling. We therefore next tested the ability of TR001 to protect from oxidizing agent-triggered mtPTP opening. For this purpose, we used known chemical activators of the mtPTP that react with two distinct classes of redox sensitive thiols (—SH) and increase the propensity of mtPTP opening. […]

Cc1ccc(Cl)cc1NC(=O)c1cn(-c2ccc(F)c(O)c2)nn1 [TR001, N-(5-chloro-2-methylphenyl)-1-(4-fluoro-3-hydroxyphenyl)-1H-1,2,3-triazole-4-carboxamide]
HeLa cell viability (HeLa cells): did not exhibit any adverse effects
days longer survival of fifty percent of embryos than DMSO treated morphants ([1]; 0.1 μm): 7 days
percent still alive at 30 dpf ([1]; 0.1 μm, after 29 days of treatment): 20%
survival (in words) ([1]; 1 μm): effective at improving survival rate
survival (in words) ([1]; 10 μm): ineffective
touch-evoked escape response (motility) [2]: improved
effect on oxidizing agent-triggered mtPTP opening (mtPTP): delayed mtPTP opening

Source: patent publication US12398110B2, “Second generation inhibitors of mitochondrial permeability transition pore with improved plasma stability” (Oregon Health & Science University, priority 2019, dated 2025)
